Structures can show the parent of a compound that is named as a salt.
How the values were obtained:
[1] = Encapsulation of mRNA nanoparticles with lipid amines using Ribogreen assay; format: physicochemical
Method: (§1) Lipids are dissolved in ethanol at a concentration of 24 mg/mL and molar ratios of 49.0:11.2:39.3:0.5 (IL1:DSPC:cholesterol:PEG-DMG-2K) and mixed with the acidification buffer (45 mM acetate buffer at pH 4). The lipid solution and acidification buffer are mixed using a multi-inlet vortex mixer at a 3:7 volumetric ratio of lipid:buffer for mixer 1 and mixer 2 and a 1:3 volumetric ratio of lipid:buffer (25% ethanol) for mixer 3. After a 5 second residence time, the resulting nanoparticles are mixed with 55 mM sodium acetate at pH 5.6 at a volumetric ratio of 5:7 of nanoparticle:buffer. See Table 2a for mixing parameters. The resulting dilute nanoparticles are then buffer exchanged and concentrated using tangential flow filtration (TFF) into a final buffer containing 5 mM sodium acetate pH 5.0. Then a 70% sucrose solution in 5 mM acetate buffer at pH 5 is subsequently added.
(§2) The resulting nanoparticles at a lipid concentration of 7.33 mg/mL in 5 mM acetate (pH 5) and 75 g/L sucrose are mixed with mRNA (luciferease or CFTR) at a concentration of 0.625 mg/mL in 42.5 mM sodium acetate pH 5.0, with N:P of 4.93. The nanoparticle solution and nanoparticles are mixed using a multi-inlet vortex mixer at a 3:2 volumetric ratio of nanoparticle:mRNA. Once loaded with mRNA, these intermediate nanoparticles undergo a 300 second residence time prior addition of neutralization buffer containing 120 mM TRIS pH 8.12 at a volumetric ratio of 5:1 of nanoparticle:buffer.
(§3) For HeLa studies evaluating luciferase protein expression, PEG-DMG-2K dissolved in a 20 mM TRIS buffer (pH 7.5) is added to the neutralized intermediate nanoparticle solution at a ratio of 1:6, bringing the solution to the final molar ratios of IL1:DSPC:cholesterol:PEG-DMG-2K of 48.5:11.1:38.9:1.5%. This nanoparticle formulation is then modified with lipid amines. In a typical example, nanoparticle formulation at a concentration of 0.18 mg/mL mRNA and a 0.56 mL volume is modified with lipid amine SA50 (467.2 nmol) prepared in buffer containing 20 mM TRIS, 14.3 mM sodium acetate, 32 g/L sucrose and 140 mM NaCl-pH 7.5 at a volumetric ratio of 1:1 of nanoparticle:buffer.
(§4) For HeLa studies evaluating CFTR protein expression, the intermediate nanoparticle formulation (1 mL, 0.415 mg mRNA) is mixed with a buffer containing 20 mM TRIS (pH 7.5), 0.9 mg/mL PEG-DMG-2K and lipid amine SA50 (647.1 nmol) at a volumetric ratio of 6:1 of nanoparticle:buffer. The resulting nanoparticle suspension undergoes concentration using a centrifugal filtration device (100 kDa molecular weight cut-off) and is diluted in running buffer (20 mM TRIS, 14.3 mM sodium acetate, and 32 g/L sucrose, pH 7.5) with a 300 mM NaCl solution to a final buffer matrix containing 70 mM NaCl.
(§5) Both resulting nanoparticle suspensions are filtered through a 0.8/0.2 μm capsule filter and filled into glass vials at an mRNA strength of about 0.1-1 mg/mLBliophysical data (Diameter and PDI from DLS measurements and Encapsualtion using Ribogreen assay) for both luciferase and CFTR mRNA nanoparticles with lipid amines is shown in Tables 2c and d, respectively.

[2] = Diameter and PDI from DLS measurements of mRNA nanoparticles with lipid amines; format: physicochemical
Method: as §1, §2, §3, §4, §5

HeLa cells [3] = test: Luciferase Protein Expression Assay in HeLa Cells; format: cell-based, Human; conditions: LNPs encapsulating Luciferase mRNA, 25 ng per well, N=4 wells; 5 h serum-free then 24 h; ONE-Glo
Method: as §3
(§6) Lipid nanoparticle compositions were prepared in a manner analogous to that in example 2. To evaluate LNP cellular uptake and protein expression In Vitro, HeLa cells from ATCC.org (ATCC CCL-2) are used. The cells are cultured in complete Minimum Essential Medium (MVEM) and are plated in 96 well Cell Carrier Ultra plate with PDL coated surface (PerkinElmer) prior to running an experiment.
Cells were transfected with buffer control (PBS) or LNPs encapsulating Luciferase mRNA (25 ng per well; N=4 replicate wells) in serum-free MEM media. LNP transfected cells were incubated for 5 h, followed by media removal and supplementation with complete MEM media. Cells were further incubated in complete MEM media overnight (24 h). Following the 24 hr incubation, luciferase protein expression was measured using the ONE-Glo™ Luciferase Assay (Promega). Cells were lysed using 1× Passive Lysis Buffer (Cat. #E194A) for 10 min in a microplate mixer at room temperature. Luciferase in the supernatant was measured by adding Luciferase Assay Reagent (Cat. #E151A) containing luciferin. Bioluminescence was then immediately measured on a Synergy H1 plate reader (BioTek). The results shown in Table 3a show the Average Relative Light Units (RLU) of each sample tested.

HeLa cells [4] = test: CFTR Protein Expression Assay in HeLa Cells; format: cell-based, Human; conditions: LNPs encapsulating CFTR mRNA, N=4 wells; 5 h serum-free then 24 h; immunofluorescence vs PBS control
Method: as §4, §6
Buffer control (PBS) and LNPs encapsulating cystic fibrosis transmembrane conductance regulator (CFTR) mRNA were dosed with MEM media in the absence of serum (N=4 replicate wells). LNP transfected cells were incubated for 5 h, followed by media removal and supplementation with complete MEM media. Cells were further incubated in complete MEM media overnight (24 h).
Following 24 hr incubation, the cells were fixed with PFA and processed for immunofluorescence (IF) using an anti-CFTR rabbit monoclonal antibody. Briefly, the cells were permeabilized with 0.5% TX-100 for 10 min, blocked with 3% bovine serum albumin (BSA)+PBST for 1 hr at room temperature, and incubated with primary anti-CFTR monoclonal antibody overnight at 4° C. Following primary antibody incubation, the cells were incubated with Alexa 488 conjugated secondary antibody for 30 mi and stained with DAPI and HCS CellMask Blue stain. Between different incubation steps the cells were either washed with PBS or PBST. Cells were imaged using Opera Phoenix spinning disk confocal microscope (PerkinElmer), and CFTR protein expression was detected using the 488 nm channel. The image analysis was performed in Harmony 4.9, with main analysis output being CFTR intensity per cell. The results shown in Table 3b show fold-change in CFTR signal intensity per cell compared to buffer (PBS) control (NA=not available).

[5] = Luciferase mRNA nanoparticle modified with lipid amine
[6] = CFTR mRNA nanoparticle with lipid amine

SMILES | % Encapsulation (Ribogreen) [1, 5] [%] | Diameter (nm) [2, 5] [nm] | PDI [2, 5] | Average Relative Light Units ± Standard Deviation (HeLa cells [3]) [Relative Light Units] | % Encapsulation (Ribogreen) [1, 6] [%] | Diameter (nm) [2, 6] [nm] | PDI [2, 6] | Average fold-change in CFTR signal intensity per cell compared to buffer control ± standard deviation (HeLa cells [4]) [fold-change]
CC(C)CCC[C@@H](C)[C@H]1CC[C@H]2[C@@H]3CC=C4C[C@@H](OC(=O)N(CCCCNC(C)CCN)C(C)CCN)CC[C@]4(C)[C@H]3CC[C@]12C (stereo partly drawn) [SA74, (3S,8S,9S,10R,13R,14S,17R)-10,13-dimethyl-17-((R)-6-methylheptan-2-yl)-2,3,4,7,8,9,10,11,12,13,14,15,16,17-tetradecahydro-1H-cyclopenta[a]phenanthren-3-yl (4-aminobutan-2-yl)(4-((4-aminobutan-2-yl)amino)butyl)carbamate trihydrochloride] | 99.1 | 75 | 0.19 | 23899.2 ± 6943.7 |  |  |  | 
CC(C)CCC[C@@H](C)[C@H]1CC[C@H]2[C@@H]3CC=C4C[C@@H](OC(=O)CCCC(=O)N(CCCCCCCC(C)(C)N)CCC(C)(C)N)CC[C@]4(C)[C@H]3CC[C@]12C.Cl.Cl [SA141, (3S,8S,9S,10R,13R,14S,17R)-10,13-dimethyl-17-((R)-6-methylheptan-2-yl)-2,3,4,7,8,9,10,11,12,13,14,15,16,17-tetradecahydro-1H-cyclopenta[a]phenanthren-3-yl 5-((3-amino-3-methylbutyl)(8-amino-8-methylnonyl)amino)-5-oxopentanoate dihydrochloride] | 98.9 | 73 | 0.15 | 35801.9 ± 8884.3 | 98.9 | 70.8 | 0.12 | 14.9 ± 0.6
CC[C@H](CC[C@@H](C)[C@H]1CC[C@H]2[C@@H]3CC=C4C[C@@H](OC(=O)N(CCCCNC(C)CCN)C(C)CCN)CC[C@]4(C)[C@H]3CC[C@]12C)C(C)C (stereo partly drawn) [SA113, (3S,8S,9S,10R,13R,14S,17R)-17-((2R,5R)-5-ethyl-6-methylheptan-2-yl)-10,13-dimethyl-2,3,4,7,8,9,10,11,12,13,14,15,16,17-tetradecahydro-1H-cyclopenta[a]phenanthren-3-yl (4-aminobutan-2-yl)(4-((4-aminobutan-2-yl)amino)butyl)carbamate trihydrochloride] | 99.7 | 77 | 0.23 | 20665.4 ± 7510.5 |  |  |  | 
CC[C@H](CC[C@@H](C)[C@H]1CC[C@H]2[C@@H]3CC=C4C[C@@H](OC(=O)N(CCCCNCC(F)(F)CN)CC(F)(F)CN)CC[C@]4(C)[C@H]3CC[C@]12C)C(C)C [SA116, (3S,8S,9S,10R,13R,14S,17R)-17-((2R,5R)-5-ethyl-6-methylheptan-2-yl)-10,13-dimethyl-2,3,4,7,8,9,10,11,12,13,14,15,16,17-tetradecahydro-1H-cyclopenta[a]phenanthren-3-yl (3-amino-2,2-difluoropropyl)(4-((3-amino-2,2-difluoropropyl)amino)butyl)carbamate trihydrochloride] | 97.6 | 73 | 0.20 | 110.9 ± 26.9 |  |  |  | 
CC[C@H](CC[C@@H](C)[C@H]1CC[C@H]2[C@@H]3CC=C4C[C@@H](OC(=O)N(CCCCNC)CCCNC)CC[C@]4(C)[C@H]3CC[C@]12C)C(C)C [SA180, (3S,8S,9S,10R,13R,14S,17R)-17-((2R,5R)-5-ethyl-6-methylheptan-2-yl)-10,13-dimethyl-2,3,4,7,8,9,10,11,12,13,14,15,16,17-tetradecahydro-1H-cyclopenta[a]phenanthren-3-yl (4-(methylamino)butyl)(3-(methylamino)propyl)carbamate dihydrochloride] | 98.7 | 76 | 0.17 | 35476 ± 6770.8 |  |  |  | 
CC(C)CCC[C@@H](C)[C@H]1CC[C@H]2[C@@H]3CC=C4C[C@@H](OC(=O)CN(CCCCCCCCN)C(=O)[C@@H](N)CCCCN)CC[C@]4(C)[C@H]3CC[C@]12C.Cl.Cl.Cl [SA130, (3S,8S,9S,10R,13R,14S,17R)-10,13-dimethyl-17-((R)-6-methylheptan-2-yl)-2,3,4,7,8,9,10,11,12,13,14,15,16,17-tetradecahydro-1H-cyclopenta[a]phenanthren-3-yl N-(L-lysyl)-N-(8-aminooctyl)glycinate trihydrochloride] |  |  |  |  | 95.7 | 85.7 | 0.18 | 1.0 ± 0
CC(C)CCC[C@@H](C)[C@H]1CC[C@H]2[C@@H]3CC=C4C[C@@H](OC(=O)CCCC(=O)N(CCCN)CCCCNCCCN)CC[C@]4(C)[C@H]3CC[C@]12C.Cl.Cl.Cl [SA58, (3S,8S,9S,10R,13R,14S,17R)-10,13-Dimethyl-17-((R)-6-methylheptan-2-yl)-2,3,4,7,8,9,10,11,12,13,14,15,16,17-tetradecahydro-1H-cyclopenta[a]phenanthren-3-yl 5-((3-aminopropyl)(4-((3-aminopropyl)amino)butyl)amino)-5-oxopentanoate trihydrochloride] |  |  |  |  | 99.6 | 71.6 | 0.10 | 4.5 ± 0.3
